Assay results from patent US20200384018A1, “OZONE NANOBUBBLE ANTICANCER AGENT” (OPT CREATION INC., priority 2017, published 2020).
Where a name gives a salt, the structure may show the parent alone.

system: MIAPaCa-2 cells; experiment: Combination of NAnO3 and existing anticancer agents, sequential administration (neutral red); type: cell-based, human; settings: exposed only to the anticancer agent (doxorubicin 0.1, gemcitabine 0.04, cisplatin 4 μg/mL); DMEM medium = 100%
Protocol: A cell suspension was prepared such that MIAPaCa-2 viable cell count became 5×10^4 cells/mL. The cell suspension (1 mL) was seeded in each of wells of a 12 well plate, allowed to stand in a CO2 incubator set at 37° C. and 5% CO2 and cultured for 18 hours or more to allow the cells to adhere to the bottom of the plate. After the completion of culture, the medium was removed from the plate and the following test-substance solutions were added.
Test-substance solutions 1 to 6 were prepared in the same manner as in Section 2.1 and used. Test-substance solutions 7 to 9 were prepared by adding each anticancer agent/DMEM medium (0.9 mL) and, in several minutes later, adding 0.1 mL of NAnO3. The same operation was also repeated after 48 hours and 72 hours.
After the completion of culture, the medium was removed and washing with PBS (−) was made. To each of the wells of the plate, a 0.005% neutral red (NR) (Kanto Chemical Co., Inc., Lot No. 806W2294) D-MEM solution (1 mL) was added and the plate was allowed to stand in a CO2 incubator for 3 hours. After 3 hours, the NR solution was removed and washing was made with PBS (−). To each plate, 1 mL of a fixation/extraction liquid (ethanol 50% (v/v), glacial acetic acid 1% (v/v) aqueous solution) was added and shaking was made for 10 minutes. Thereafter, the value of the absorbance was measured by using a microplate reader (EL×800, BIO-TEC INSTRUMENTS, INC., wavelength: 540 nm).
Provided that the absorbance of DMEM medium (test-substance solution 1) was regarded as 100%, the cell survival rate (%) of each test group was obtained (FIG. 4).

| SMILES | cell survival rate |
| --- | --- |
| N.N.[Cl][Pt][Cl] [cisplatin] | 47.5% |
| COc1cccc2c1C(=O)c1c(O)c3c(c(O)c1C2=O)C[C@@](O)(C(=O)CO)C[C@@H]3O[C@H]1C[C@H](N)[C@H](O)[C@H](C)O1 [doxorubicin, doxorubicin hydrochloride] | 51.1% |
| Nc1ccn([C@@H]2O[C@H](CO)[C@@H](O)C2(F)F)c(=O)n1 [gemcitabine, gemcitabine hydrochloride] | 44.8% |
